What all share (format): functional
The test system of one experiment is Staphylococcus aureus. Kind of experiment: In vitro antibacterial activity against Staphylococcus aureus X1.1.
A further experiment has as its system Streptococcus pneumoniae. Nature of the experiment: In vitro antibacterial activity against Streptococcus pneumoniae PARK.
A further experiment deals with Pseudomonas aeruginosa. Kind of experiment: In vitro antibacterial activity against Pseudomonas X239.
In the next experiment the test system is Klebsiella pneumoniae. Nature of the experiment: In vitro antibacterial activity against Klebsiella X26.
For a further experiment, the system named is Haemophilus influenzae. Nature of the experiment: In vitro antibacterial activity against Haemophilus influenza C.L.
A further experiment has as its system Escherichia coli. Kind of experiment: In vitro antibacterial activity against Escherichia coli EC14.
For a further experiment, the system named is Serratia marcescens. Kind of experiment: In vitro antibacterial activity against Serratia X99.
In the next experiment the test system is Klebsiella aerogenes. Nature of the experiment: In vitro antibacterial activity against Enterobacter aerogenes C32.

≈ marks a conversion by molar mass, not a printed value.

For the compound `CO/N=C(\C(=O)NC1CN2CC(S(C)(=O)=O)=C(C(=O)O)N2C1=O)c1csc(N)n1` (configuration not stated), the MIC against Staphylococcus aureus was 64 µg/mL (≈ 144 µM); against Streptococcus pneumoniae, 0.25 µg/mL (≈ 0.562 µM); in the experiment with Pseudomonas aeruginosa, > 128 µg/mL; in the experiment with Klebsiella pneumoniae, 0.25 µg/mL (≈ 0.562 µM); against Haemophilus influenzae, 2 µg/mL (≈ 4.5 µM); against Escherichia coli, 0.125 µg/mL (≈ 0.281 µM). Besides, the MIC in the experiment on Serratia marcescens and against Klebsiella aerogenes was 0.25 µg/mL (≈ 0.562 µM) throughout.
Take `CO/N=C(\C(=O)NC1CN2CC(C(=O)OCc3ccccc3)=C(C(=O)O)N2C1=O)c1csc(N)n1` (configuration not stated): the MIC in the experiment with Staphylococcus aureus was 128 µg/mL (≈ 256 µM); in the experiment with Streptococcus pneumoniae, 64 µg/mL (≈ 128 µM); in the experiment on Pseudomonas aeruginosa, > 128 µg/mL; in the experiment with Klebsiella pneumoniae, 64 µg/mL (≈ 128 µM); against Haemophilus influenzae, 64 µg/mL (≈ 128 µM); with Escherichia coli it was 64 µg/mL (≈ 128 µM). Further, the MIC against Serratia marcescens and against Klebsiella aerogenes was 64 µg/mL (≈ 128 µM) in each case.
With `CO/N=C(\C(=O)N[C@H]1CN2CC(C#N)=C(C(=O)O)N2C1=O)c1csc(N)n1`, the MIC is 64 µg/mL (≈ 164 µM) against Staphylococcus aureus; 0.25 µg/mL (≈ 0.639 µM) in the experiment with Streptococcus pneumoniae; > 128 µg/mL with Pseudomonas aeruginosa; 0.25 µg/mL (≈ 0.639 µM) against Klebsiella pneumoniae; 0.5 µg/mL (≈ 1.28 µM) against Haemophilus influenzae; 0.25 µg/mL (≈ 0.639 µM) against Escherichia coli. Besides, the MIC against Serratia marcescens and against Klebsiella aerogenes was 1 µg/mL (≈ 2.56 µM) in each case.
`CO/N=C(\C(=O)NC1CN2CCC(C(C)=O)=C(C(=O)O)N2C1=O)c1csc(N)n1` (configuration not stated): the MIC against Staphylococcus aureus, in the experiment on Streptococcus pneumoniae, in the experiment on Pseudomonas aeruginosa, against Klebsiella pneumoniae, with Haemophilus influenzae and against Escherichia coli was > 128 µg/mL throughout. Also, the MIC against Serratia marcescens and against Klebsiella aerogenes was > 128 µg/mL throughout.
Consider `CO/N=C(\C(=O)NC1CN2CC(C(=O)OC)=C(C(=O)O)N2C1=O)c1csc(N)n1` (configuration not stated), for which the MIC with Staphylococcus aureus is > 128 µg/mL; against Streptococcus pneumoniae, 8 µg/mL (≈ 18.9 µM); against Pseudomonas aeruginosa, > 128 µg/mL; against Klebsiella pneumoniae it was 8 µg/mL (≈ 18.9 µM); against Haemophilus influenzae it was 32 µg/mL (≈ 75.4 µM); against Escherichia coli, 8 µg/mL (≈ 18.9 µM). Also, the MIC in the experiment with Serratia marcescens was 8 µg/mL (≈ 18.9 µM); in the experiment on Klebsiella aerogenes, 16 µg/mL (≈ 37.7 µM).
On to `CCOC(=O)C1=C(C(=O)O)N2C(=O)C(NC(=O)/C(=N\OC)c3csc(N)n3)CN2C1` (configuration not stated), for which the MIC in the experiment on Staphylococcus aureus was > 128 µg/mL; with Streptococcus pneumoniae, 8 µg/mL (≈ 18.2 µM); against Pseudomonas aeruginosa, > 128 µg/mL; in the experiment with Klebsiella pneumoniae it was 8 µg/mL (≈ 18.2 µM); in the experiment with Haemophilus influenzae, 32 µg/mL (≈ 73 µM); with Escherichia coli it was 16 µg/mL (≈ 36.5 µM). Moreover, the results for the MIC against Serratia marcescens and against Klebsiella aerogenes were 16 µg/mL (≈ 36.5 µM) and 32 µg/mL (≈ 73 µM), respectively.
Consider `CCCOC(=O)C1=C(C(=O)O)N2C(=O)C(NC(=O)/C(=N\OC)c3csc(N)n3)CN2C1` (configuration not stated), for which the MIC against Staphylococcus aureus was > 128 µg/mL; against Streptococcus pneumoniae, 8 µg/mL (≈ 17.7 µM); against Pseudomonas aeruginosa it was > 128 µg/mL; in the experiment on Klebsiella pneumoniae it was 8 µg/mL (≈ 17.7 µM); against Haemophilus influenzae, 32 µg/mL (≈ 70.7 µM); with Escherichia coli, 32 µg/mL (≈ 70.7 µM). Also, the MIC against Serratia marcescens came out at 32 µg/mL (≈ 70.7 µM); with Klebsiella aerogenes, 64 µg/mL (≈ 141 µM).
In the case of `CO/N=C(\C(=O)N[C@H]1CN2CC(S(=O)(=O)c3ccccc3)=C(C(=O)O)N2C1=O)c1csc(N)n1`, the MIC in the experiment on Staphylococcus aureus was 32 µg/mL (≈ 63.2 µM); against Streptococcus pneumoniae, 0.125 µg/mL (≈ 0.247 µM); against Pseudomonas aeruginosa, > 128 µg/mL; against Klebsiella pneumoniae, 0.125 µg/mL (≈ 0.247 µM); against Haemophilus influenzae, 0.5 µg/mL (≈ 0.987 µM); against Escherichia coli, 0.5 µg/mL (≈ 0.987 µM). Further, the MIC in the experiment with Serratia marcescens and in the experiment with Klebsiella aerogenes was 1 µg/mL (≈ 1.97 µM) in each case.
For the compound `CO/N=C(\C(=O)N[C@H]1CN2CC(S(C)(=O)=O)=C(C(=O)O)N2C1=O)c1csc(N)n1`, the MIC with Staphylococcus aureus is 32 µg/mL (≈ 72 µM); against Streptococcus pneumoniae it was 0.25 µg/mL (≈ 0.562 µM); in the experiment on Pseudomonas aeruginosa it was > 128 µg/mL; in the experiment with Klebsiella pneumoniae it was 0.125 µg/mL (≈ 0.281 µM); against Haemophilus influenzae, 0.5 µg/mL (≈ 1.12 µM); against Escherichia coli it was 0.06 µg/mL (≈ 0.135 µM). The MIC in the experiment on Serratia marcescens was determined as 0.125 µg/mL (≈ 0.281 µM); with Klebsiella aerogenes, 0.25 µg/mL (≈ 0.562 µM).
Turning to `CCS(=O)(=O)C1=C(C(=O)O)N2C(=O)[C@@H](NC(=O)/C(=N\OC)c3csc(N)n3)CN2C1`, the MIC in the experiment with Staphylococcus aureus was 32 µg/mL (≈ 69.8 µM); against Streptococcus pneumoniae it was 0.125 µg/mL (≈ 0.273 µM); in the experiment on Pseudomonas aeruginosa, > 128 µg/mL; with Klebsiella pneumoniae it was 0.125 µg/mL (≈ 0.273 µM); against Haemophilus influenzae, 0.5 µg/mL (≈ 1.09 µM); against Escherichia coli it was 0.125 µg/mL (≈ 0.273 µM). For the same compound, the MIC against Serratia marcescens and with Klebsiella aerogenes was 0.25 µg/mL (≈ 0.545 µM) each time.
On to `CCC(=O)C1=C(C(=O)O)N2C(=O)C(NC(=O)/C(=N\OC)c3csc(N)n3)CN2C1` (configuration not stated), for which the MIC against Staphylococcus aureus is 64 µg/mL (≈ 152 µM); against Streptococcus pneumoniae it was 2 µg/mL (≈ 4.73 µM); against Pseudomonas aeruginosa, > 128 µg/mL; in the experiment with Klebsiella pneumoniae it was 2 µg/mL (≈ 4.73 µM); in the experiment on Haemophilus influenzae it was 8 µg/mL (≈ 18.9 µM); against Escherichia coli, 4 µg/mL (≈ 9.47 µM). For the same compound, the MIC in the experiment on Serratia marcescens was 4 µg/mL (≈ 9.47 µM); with Klebsiella aerogenes it was 8 µg/mL (≈ 18.9 µM).
Take `CO/N=C(\C(=O)NC1CN2CC(C#N)=C(C(=O)O)N2C1=O)c1csc(N)n1` (configuration not stated): the MIC is 64 µg/mL (≈ 164 µM) with Staphylococcus aureus; 0.5 µg/mL (≈ 1.28 µM) in the experiment with Streptococcus pneumoniae; > 128 µg/mL in the experiment with Pseudomonas aeruginosa; 0.5 µg/mL (≈ 1.28 µM) with Klebsiella pneumoniae; 1 µg/mL (≈ 2.56 µM) in the experiment on Haemophilus influenzae; 0.5 µg/mL (≈ 1.28 µM) against Escherichia coli. The MIC with Serratia marcescens and with Klebsiella aerogenes was 2 µg/mL (≈ 5.11 µM) each time.
In the case of `CO/N=C(\C(=O)NC1CN2CC(C(C)=O)=C(C(=O)O)N2C1=O)c1csc(N)n1` (configuration not stated), the MIC against Staphylococcus aureus was 32 µg/mL (≈ 78.4 µM); with Streptococcus pneumoniae it was 1 µg/mL (≈ 2.45 µM); in the experiment on Pseudomonas aeruginosa, > 128 µg/mL; against Klebsiella pneumoniae, 1 µg/mL (≈ 2.45 µM); against Haemophilus influenzae it was 8 µg/mL (≈ 19.6 µM); in the experiment with Escherichia coli, 2 µg/mL (≈ 4.9 µM). Further, the MIC against Serratia marcescens stood at 4 µg/mL (≈ 9.79 µM); in the experiment on Klebsiella aerogenes, 2 µg/mL (≈ 4.9 µM).
As to `CO/N=C(\C(=O)NC1CN2CCC(C(=O)OC)=C(C(=O)O)N2C1=O)c1csc(N)n1` (configuration not stated), the MIC against Staphylococcus aureus, in the experiment with Streptococcus pneumoniae, with Pseudomonas aeruginosa, against Klebsiella pneumoniae, with Haemophilus influenzae and in the experiment on Escherichia coli was > 128 µg/mL throughout. The MIC against Serratia marcescens and in the experiment with Klebsiella aerogenes was > 128 µg/mL in each case.
